Data: US5451599A, “Complex salts of hematoporphyrin and of its derivatives, their synthesis, and therapeutic agent” (Wojskowa Akademia Techniczna im. Jaroslawa Dabrowskiego, priority 1991, dated 1995)

Key:
[1] = system: HBT-39/w (breast cancer cells); test: 48 h incubation with the salts: cell fluorescence, living cells, multiplication coefficient (Table 2); assay type: cell-based, Human; settings: 48 hs, 50 mcg/ml
Procedure: (§1) New compounds of formula 1 were tested on cell lines. Use was made of 9 different neoplastic cell lines which were incubated for 48 hs with various new salts of protoporphyrin and with a new salt of the conventionally applied HpD preparation/hematoporphyrin derivatives/obtained according to Lipson et al. All compounds were used in the form of aqueous solutions, at a concentration of 50 mcg/ml. Determination was made of:
(§2) 1/ Cell fluorescence /F/: after 48 hs incubation, the cells were washed away, the intensity of fluorescence was measured in a fluorescence microscope and was expressed on an arbitrary scale of 0-4 scores;
(§3) 2/ Percentage of living cells /P %/ after 48 hs incubation;
(§4) 3/ Cell multiplication coefficient /M/ in the presence of different preparations, expressed as: [formula]

[2] = system: T-47D (breast cancer cells); test: 48 h incubation with the salts: cell fluorescence, living cells, multiplication coefficient (Table 3); assay type: cell-based, Human; settings: 48 hs, 50 mcg/ml
Procedure: as §1, §2, §3, §4
T-47D breast cancer cells

[3] = system: KB (oral cavity cancer cells); test: 48 h incubation with the salts: cell fluorescence, living cells, multiplication coefficient (Table 2); assay type: cell-based, Human; settings: 48 hs, 50 mcg/ml
Procedure: as §1, §2, §3, §4
KB oral cavity cancer cells

[4] = system: Mm (Mm5MT/C1, mammary gland cancer cells of C3H-strain mice); test: 48 h incubation with the salts: cell fluorescence, living cells, multiplication coefficient (Table 3); assay type: cell-based, Murine; settings: for Cell fluorescence /F/ / Cell multiplication coefficient /M/ / Percentage of living cells /P %/: Mm, 48 hs, 50 mcg/ml
Procedure: as §1, §2, §3, §4
mammary gland cancer cells of C3H-strain mice

[5] = system: Hela (cervix uteri cancer cells); test: 48 h incubation with the salts: cell fluorescence, living cells, multiplication coefficient (Table 1); assay type: cell-based, Human; settings: 48 hs, 50 mcg/ml
Procedure: as §1, §2, §3, §4

[6] = system: GR (GRMT/F6, mammary gland cancer cells of GR-strain mice); test: 48 h incubation with the salts: cell fluorescence, living cells, multiplication coefficient (Table 2); assay type: cell-based, Murine; settings: 48 hs, 50 mcg/ml
Procedure: as §1, §2, §3, §4
GRMT/F6 mammary gland cancer cells of GR-strain mice

[7] = system: CL; test: 48 h incubation with the salts: cell fluorescence, living cells, multiplication coefficient (Table 1); assay type: cell-based; settings: 48 hs, 50 mcg/ml
Procedure: as §1, §2, §3, §4

[8] = system: PZ; test: as above; assay type: cell-based; settings: 48 hs, 50 mcg/ml
Procedure: as §1, §2, §3, §4

[9] = system: MA-104 (Rhesus monkey embryo kidney cancer cells); test: as above; assay type: cell-based; settings: 48 hs, 50 mcg/ml
Procedure: as §1, §2, §3, §4

[10] = system: HEp-2 (larynx cancer cells); test: 48 h incubation with the salts: cell fluorescence, living cells, multiplication coefficient (Table 3); assay type: cell-based, Human; settings: 48 hs, 50 mcg/ml
Procedure: as §1, §2, §3, §4
Hep-2 larynx cancer cells

Structure (SMILES)	Cell fluorescence /F/ [1]	Cell multiplication coefficient /M/ [1]	Percentage of living cells /P %/ [1] [%]	Cell fluorescence /F/ [2]	Cell multiplication coefficient /M/ [2]	Percentage of living cells /P %/ [2] [%]	Cell fluorescence /F/ [3]	Cell multiplication coefficient /M/ [3]	Percentage of living cells /P %/ [3] [%]	Cell fluorescence /F/ [4]	Cell multiplication coefficient /M/ [4]	Percentage of living cells /P %/ [4] [%]	Cell fluorescence /F/ [5]	Cell multiplication coefficient /M/ [5]	Percentage of living cells /P %/ [5] [%]	Cell fluorescence /F/ [6]	Cell multiplication coefficient /M/ [6]	Percentage of living cells /P %/ [6] [%]	Cell fluorescence /F/ [7]	Cell multiplication coefficient /M/ [7]	also measured
CC1=C(CCC(=O)O)c2cc3[nH]c(cc4nc(cc5[nH]c(cc1n2)c(C(C)NC(CCC(=O)O)C(=O)O)c5C)C(C(C)NC(CCC(=O)O)C(=O)O)=C4C)c(C)c3CCC(=O)O.N=C(N)NCCC[C@H](N)C(=O)O.N=C(N)NCCC[C@H](N)C(=O)O (stereo not drawn) [PP/Glu/2 /Arg/2, l-arginine di/N-glutamyl/-protoporphyrinate]	+	0,73	66	+++	0,80	49	++++	0,08	8	+++	0,70	76	++	0,16	33	+	0,75	75	-	0,45	activity in studies of the Mm5MT/C1 cell line (in words) ([4]; mammary gland cancer of C3H mice): least effective against this type of neoplasm; Percentage of living cells /P %/ [7]: 45%; Cell fluorescence /F/ [8]: +; Cell multiplication coefficient /M/ [8]: 0,15; Percentage of living cells /P %/ [8]: 15%; Cell fluorescence /F/ [9]: -; Cell multiplication coefficient /M/ [9]: 0,16; Percentage of living cells /P %/ [9]: 15%; Cell fluorescence /F/ [10]: ++++; Cell multiplication coefficient /M/ [10]: 0,08; Percentage of living cells /P %/ [10]: 15%
CSCCC(NC(C)C1=C(C)c2cc3[nH]c(cc4nc(cc5[nH]c(cc1n2)c(C)c5C(C)NC(CCSC)C(=O)O)C(C)=C4CCC(=O)O)c(CCC(=O)O)c3C)C(=O)O.N=C(N)NCCC[C@H](N)C(=O)O.N=C(N)NCCC[C@H](N)C(=O)O (stereo not drawn) [PP/Met/2 /Arg/2, l-arginine di/N-methionyl/-protoporphyrinate]	++++	0,08	8	+++	0,10	10	++	0,12	5	++++	0,08	8	++++	0,05	5	++++	0,22	25	+	0	Percentage of living cells /P %/ [7]: 0%; Cell fluorescence /F/ [8]: +; Cell multiplication coefficient /M/ [8]: 0,08; Percentage of living cells /P %/ [8]: 8%; Cell fluorescence /F/ [9]: ++; Cell multiplication coefficient /M/ [9]: 0,33; Percentage of living cells /P %/ [9]: 22%; Cell fluorescence /F/ [10]: +++; Cell multiplication coefficient /M/ [10]: 0; Percentage of living cells /P %/ [10]: 0%
CC1=C(CCC(=O)O)c2cc3[nH]c(cc4nc(cc5[nH]c(cc1n2)c(C(C)NC(CC(=O)O)C(=O)O)c5C)C(C(C)NC(CC(=O)O)C(=O)O)=C4C)c(C)c3CCC(=O)O.N=C(N)NCCC[C@H](N)C(=O)O.N=C(N)NCCC[C@H](N)C(=O)O (stereo not drawn) [PP/Asp/2 /Arg/2, l-arginine di/N-aspartyl/-protoporphyrinate]	+++	0,81	48	++++	0,92	65	++	0,12	16	+++	0,92	70	+++	0,50	38	++	0,73	25	+	0,55	Percentage of living cells /P %/ [7]: 55%; Cell fluorescence /F/ [8]: +; Cell multiplication coefficient /M/ [8]: 0,15; Percentage of living cells /P %/ [8]: 14%; Cell fluorescence /F/ [9]: +++; Cell multiplication coefficient /M/ [9]: 0,52; Percentage of living cells /P %/ [9]: 17%; Cell fluorescence /F/ [10]: ++++; Cell multiplication coefficient /M/ [10]: 0,40; Percentage of living cells /P %/ [10]: 47%
CC1=C(CCC(=O)O)c2cc3[nH]c(cc4nc(cc5[nH]c(cc1n2)c(C(C)NC(CO)C(=O)O)c5C)C(C(C)NC(CO)C(=O)O)=C4C)c(C)c3CCC(=O)O.N=C(N)NCCC[C@H](N)C(=O)O.N=C(N)NCCC[C@H](N)C(=O)O (stereo not drawn) [PP/Ser/2 /Arg/2, l-arginine di/N-seryl/-protoporphyrinate]	++	0,50	33	+++	0,60	40	++	0	0	+	0,37	37	++	0,50	55	+	0,12	12	+	0	Percentage of living cells /P %/ [7]: 0%; Cell fluorescence /F/ [8]: ++; Cell multiplication coefficient /M/ [8]: 0,02; Percentage of living cells /P %/ [8]: 2,5%; Cell fluorescence /F/ [9]: -; Cell multiplication coefficient /M/ [9]: 0,16; Percentage of living cells /P %/ [9]: 0%; Cell fluorescence /F/ [10]: +; Cell multiplication coefficient /M/ [10]: 0,50; Percentage of living cells /P %/ [10]: 25%
CC1=C(CCC(=O)O)c2cc3[nH]c(cc4nc(cc5[nH]c(cc1n2)c(C(C)NC(C)C(=O)O)c5C)C(C(C)NC(C)C(=O)O)=C4C)c(C)c3CCC(=O)O.N=C(N)NCCC[C@H](N)C(=O)O.N=C(N)NCCC[C@H](N)C(=O)O (stereo not drawn) [PP/Ala/2 /Arg/2, l-arginine di/N-alanyl/-protoporphyrinate]	++	0,33	17	+++	0,82	85	+++	0	0	+++	0,84	86	+	0,11	11	+	0,50	50	-	0,30	Percentage of living cells /P %/ [7]: 30%; Cell fluorescence /F/ [8]: ++; Cell multiplication coefficient /M/ [8]: 0,15; Percentage of living cells /P %/ [8]: 15%; Cell fluorescence /F/ [9]: ++; Cell multiplication coefficient /M/ [9]: 0,50; Percentage of living cells /P %/ [9]: 50%; Cell fluorescence /F/ [10]: ++; Cell multiplication coefficient /M/ [10]: 0,21; Percentage of living cells /P %/ [10]: 21%
CC1=C(CCC(=O)O)c2cc3[nH]c(cc4nc(cc5[nH]c(cc1n2)c(C(C)NC(Cc1ccccc1)C(=O)O)c5C)C(C(C)NC(Cc1ccccc1)C(=O)O)=C4C)c(C)c3CCC(=O)O.N=C(N)NCCC[C@H](N)C(=O)O.N=C(N)NCCC[C@H](N)C(=O)O (stereo not drawn) [PP/Fen/2 /Arg/2, l-arginine di/N-phenylalanyl/protoporphyrinate]	++++	0,11	11	+	0,60	60	++	0,12	12	++++	0,37	12	+++	0,14	5	+++	0	0	++	0	Percentage of living cells /P %/ [7]: 0%; Cell fluorescence /F/ [8]: +; Cell multiplication coefficient /M/ [8]: 0,08; Percentage of living cells /P %/ [8]: 8%; Cell fluorescence /F/ [9]: ++; Cell multiplication coefficient /M/ [9]: 0,35; Percentage of living cells /P %/ [9]: 35%; Cell fluorescence /F/ [10]: ++; Cell multiplication coefficient /M/ [10]: 0,08; Percentage of living cells /P %/ [10]: 3%
